Assay results from patent publication US11965039B2, “Compstatin analogues and their medical uses” (priority 2018, dated 2024).
Starred links: 1 amine or outer side, 2 acyl side, 3 side chain; linkers in the order of their positions; H or OH if unused. Positions of bridges follow the written chain, without caps; N, C: chain ends. Non-standard residues stand in square brackets, D forms with d. Residues, ends and D or L forms follow the SMILES beside them. Groups on a side chain read outwards from the residue. *: point of attachment. C20 diacid = O=C(O)CCCCCCCCCCCCCCCCCCC(=O)*; Trp(1-Me) = Cn1cc(C[C@H](N)C(=O)O)c2ccccc21; C18 diacid = O=C(O)CCCCCCCCCCCCCCCCC(=O)*; γGlu = O=C(O)[C@H](CCC(=O)[*:2])N[*:1]; AEEA = NCCOCCOCC(=O)O; Aoc = NCCCCCCCC(=O)O; Sar = CNCC(=O)O

tested on: classical complement pathway; assay: In vitro haemolysis assay (inhibition of classical complement pathway); type: cell-based, human; conditions: Table 5, different residues at position 3 of Ac-IC(1)XWQDWGEHRC(1)T-NH2; read-out: IC50, CP hemolysis
In short: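 Compound dilutions preincubated 15 min at room temperature with diluted human serum (titrated per batch for 70-90% maximal haemolysis), then antibody-sensitized sheep RBC (10^7/well) added for 30 min at 37 °C in Tris/casein buffer, pH 7.4. Stopped with EDTA; haemolysis read at 405 nm; IC50 by 4PL fit.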

Compound | IC50
Ac-IC(1)XWQDWGEHRC(1)T-NH2 [Beta-Homo-lsoleucine, reference compound] | > 10 µM

same assay, conditions: human serum, sensitized sheep red blood cells; Table 3, given as upper bounds; read-out: IC50, inhibition of hemolysis

Compound | IC50
CC[C@H](C)[C@@H]1NC(=O)[C@@H](NC(=O)[C@H](Cc2ccccc2)NC(C)=O)CSSC[C@@H](C(=O)N[C@H](C(=O)NCC(=O)N[C@@H](C)C(=O)N[C@@H](CCC(=O)O)C(N)=O)[C@@H](C)O)NC(=O)[C@H](CCCNC(=N)N)NC(=O)[C@H](Cc2c[nH]cn2)NC(=O)[C@H](CCC(=O)O)NC(=O)CNC(=O)[C@H](Cc2c[nH]c3ccccc23)NC(=O)[C@H](CC(=O)O)NC(=O)[C@H](CCC(N)=O)NC(=O)[C@H](Cc2c[nH]c3ccccc23)NC1=O [Compound 43] (Ac-FCIWQDWGEHRCTGAE-NH2; disulfide 2-12) | < 0.1 µM
CC[C@H](C)[C@H](NC(C)=O)C(=O)N[C@H]1CSSC[C@@H](C(=O)N[C@H](C(=O)N[C@@H](CCC(=O)O)C(=O)NCC(=O)N[C@@H](CCCCN)C(N)=O)[C@@H](C)O)NC(=O)[C@H](CCCNC(=N)N)NC(=O)[C@H](Cc2c[nH]cn2)NC(=O)[C@H](CCC(=O)O)NC(=O)CNC(=O)[C@H](Cc2c[nH]c3ccccc23)NC(=O)[C@H](CC(=O)O)NC(=O)[C@H](CCC(N)=O)NC(=O)[C@H](Cc2c[nH]c3ccccc23)NC(=O)[C@H]([C@@H](C)CC)NC1=O [Compound 39] (Ac-ICIWQDWGEHRCTEGK-NH2; disulfide 2-12) | < 0.1 µM
CC[C@H](C)[C@@H]1NC(=O)[C@@H](NC(=O)[C@H](Cc2ccccc2)NC(=O)[C@H](CCC(=O)O)NC(C)=O)CSSC[C@@H](C(=O)N[C@@H](CCC(=O)O)C(=O)NCC(=O)N[C@@H](CCC(=O)O)C(=O)N[C@@H](CCCCNC(=O)CC[C@H](NC(=O)CNC(=O)CC[C@H](NC(=O)CCCCCCCCCCCCCCCCC(=O)O)C(=O)O)C(=O)O)C(N)=O)NC(=O)[C@H](CCCNC(=N)N)NC(=O)[C@H](Cc2c[nH]cn2)NC(=O)[C@H](CCC(=O)O)NC(=O)CNC(=O)[C@H](Cc2c[nH]c3ccccc23)NC(=O)[C@H](CC(=O)O)NC(=O)[C@H](CCC(N)=O)NC(=O)[C@H](Cc2cn(C)c3ccccc23)NC1=O [Compound 134] (Ac-EFCI[Trp(1-Me)]QDWGEHRCEGEK([γGlu-Gly-γGlu-C18 diacid])-NH2; disulfide 3-13) | < 0.1 µM
CC[C@H](C)[C@@H]1NC(=O)[C@@H](NC(=O)[C@H](Cc2ccccc2)NC(=O)[C@H](CCC(=O)O)NC(=O)[C@H](CO)NC(C)=O)CSSC[C@@H](C(=O)N(C)CC(=O)N[C@@H](CCC(=O)O)C(=O)NCC(=O)N[C@@H](CCC(=O)O)C(=O)NCCOCCOCC(=O)NCCOCCOCC(=O)N[C@@H](CCCCNC(=O)CC[C@H](NC(=O)CNC(=O)CC[C@H](NC(=O)CCCCCCCCCCCCCCCCCCC(=O)O)C(=O)O)C(=O)O)C(N)=O)NC(=O)[C@H](CCCNC(=N)N)NC(=O)[C@H](Cc2c[nH]cn2)NC(=O)[C@H](CCC(=O)O)NC(=O)CNC(=O)[C@H](Cc2c[nH]c3ccccc23)NC(=O)[C@H](CC(=O)O)NC(=O)[C@H](CCC(N)=O)NC(=O)[C@H](Cc2cn(C)c3ccccc23)NC1=O [Compound 128] (Ac-SEFCI[Trp(1-Me)]QDWGEHRC[Sar]EGE[AEEA][AEEA]K([γGlu-Gly-γGlu-C20 diacid])-NH2; disulfide 4-14) | < 0.1 µM
CC[C@H](C)[C@H](NC(C)=O)C(=O)N[C@H]1CSSC[C@@H](C(=O)N[C@H](C(N)=O)[C@@H](C)O)NC(=O)[C@H](CCCNC(=N)N)NC(=O)[C@H](Cc2c[nH]cn2)NC(=O)[C@H](CCC(=O)O)NC(=O)CNC(=O)[C@H](Cc2c[nH]c3ccccc23)NC(=O)[C@H](CCCCN)NC(=O)[C@H](CCC(N)=O)NC(=O)[C@H](Cc2c[nH]c3ccccc23)NC(=O)[C@H]([C@@H](C)CC)NC1=O [Compound 7] (Ac-ICIWQKWGEHRCT-NH2; disulfide 2-12) | < 1 µM
CC[C@H](C)[C@@H]1NC(=O)[C@@H](NC(=O)[C@H](Cc2ccccc2)NC(=O)[C@H](CCC(=O)O)NC(=O)[C@H](CO)NC(C)=O)CSSC[C@@H](C(=O)N(C)CC(=O)N[C@@H](CCC(=O)O)C(=O)NCC(=O)N[C@@H](C)C(=O)N[C@@H](CCCCNC(=O)COCCOCCNC(=O)CC[C@H](NC(=O)COCCOCCNC(=O)CNC(=O)CC[C@H](NC(=O)CCCCCCCCCCCCCCCCC(=O)O)C(=O)O)C(=O)O)C(N)=O)NC(=O)[C@H](CCCNC(=N)N)NC(=O)[C@H](Cc2c[nH]cn2)NC(=O)[C@H](CCC(=O)O)NC(=O)CNC(=O)[C@H](Cc2c[nH]c3ccccc23)NC(=O)[C@H](CCC(=O)O)NC(=O)[C@H](CCC(N)=O)NC(=O)[C@H](Cc2cn(C)c3ccccc23)NC1=O [Compound 120] (Ac-SEFCI[Trp(1-Me)]QEWGEHRC[Sar]EGAK([AEEA-γGlu-AEEA-Gly-γGlu-C18 diacid])-NH2; disulfide 4-14) | < 0.25 µM
CC[C@H](C)[C@@H]1NC(=O)[C@@H](NC(=O)[C@H](Cc2ccccc2)NC(=O)[C@H](CCC(=O)O)NC(=O)[C@H](CO)NC(C)=O)CSSC[C@@H](C(=O)N[C@H](C(=O)N[C@@H](CCC(=O)O)C(=O)NCC(=O)N[C@@H](CCC(=O)O)C(=O)NCC(=O)NCC(=O)NCC(=O)N[C@@H](CCCCNC(=O)CC[C@H](NC(=O)CNC(=O)CC[C@H](NC(=O)CCCCCCCCCCCCCCCCC(=O)O)C(=O)O)C(=O)O)C(N)=O)[C@@H](C)O)NC(=O)[C@H](CCCNC(=N)N)NC(=O)[C@H](Cc2c[nH]cn2)NC(=O)[C@H](CCC(=O)O)NC(=O)CNC(=O)[C@H](Cc2c[nH]c3ccccc23)NC(=O)[C@H](CC(=O)O)NC(=O)[C@H](CCC(N)=O)NC(=O)[C@H](Cc2cn(C)c3ccccc23)NC1=O [Compound 130] (Ac-SEFCI[Trp(1-Me)]QDWGEHRCTEGEGGGK([γGlu-Gly-γGlu-C18 diacid])-NH2; disulfide 4-14) | < 0.1 µM
CC[C@H](C)[C@@H]1NC(=O)[C@@H](NC(=O)[C@H](Cc2ccccc2)NC(=O)[C@H](CCC(=O)O)NC(=O)[C@H](CO)NC(C)=O)CSSC[C@@H](C(=O)N[C@H](C(=O)N[C@@H](CCC(=O)O)C(=O)NCC(=O)N[C@@H](CCC(=O)O)C(=O)NCCCCCCCC(=O)N[C@@H](CCCCNC(=O)CC[C@H](NC(=O)CNC(=O)CC[C@H](NC(=O)CCCCCCCCCCCCCCCCC(=O)O)C(=O)O)C(=O)O)C(N)=O)[C@@H](C)O)NC(=O)[C@H](CCCNC(=N)N)NC(=O)[C@H](Cc2c[nH]cn2)NC(=O)[C@H](CCC(=O)O)NC(=O)CNC(=O)[C@H](Cc2c[nH]c3ccccc23)NC(=O)[C@H](CC(=O)O)NC(=O)[C@H](CCC(N)=O)NC(=O)[C@H](Cc2cn(C)c3ccccc23)NC1=O [Compound 136] (Ac-SEFCI[Trp(1-Me)]QDWGEHRCTEGE[Aoc]K([γGlu-Gly-γGlu-C18 diacid])-NH2; disulfide 4-14) | < 0.1 µM
CC[C@H](C)[C@@H]1NC(=O)[C@@H](NC(=O)[C@H](Cc2ccccc2)NC(=O)[C@H](CCC(=O)O)NC(C)=O)CSSC[C@@H](C(=O)N[C@@H](CCC(=O)O)C(=O)N[C@@H](CO)C(N)=O)NC(=O)[C@H](CCCNC(=N)N)NC(=O)[C@H](Cc2c[nH]cn2)NC(=O)[C@H](CCC(=O)O)NC(=O)CNC(=O)[C@H](Cc2c[nH]c3ccccc23)NC(=O)[C@H](CC(=O)O)NC(=O)[C@H](CCC(N)=O)NC(=O)[C@H](Cc2cn(C)c3ccccc23)NC1=O [Compound 85] (Ac-EFCI[Trp(1-Me)]QDWGEHRCES-NH2; disulfide 3-13) | < 0.1 µM
CC[C@H](C)[C@@H]1NC(=O)[C@@H](NC(=O)[C@H](Cc2ccccc2)NC(=O)[C@H](CCC(=O)O)NC(=O)[C@H](CO)NC(C)=O)CSSC[C@@H](C(=O)N(C)CC(=O)N[C@@H](CCC(=O)O)C(=O)NCC(=O)N[C@@H](CCC(=O)O)C(=O)NCCOCCOCC(=O)NCCOCCOCC(=O)NCCOCCOCC(=O)N[C@@H](CCCCNC(=O)CC[C@H](NC(=O)CNC(=O)CC[C@H](NC(=O)CCCCCCCCCCCCCCCCC(=O)O)C(=O)O)C(=O)O)C(N)=O)NC(=O)[C@H](CCCNC(=N)N)NC(=O)[C@H](Cc2c[nH]cn2)NC(=O)[C@H](CCC(=O)O)NC(=O)CNC(=O)[C@H](Cc2c[nH]c3ccccc23)NC(=O)[C@H](CC(=O)O)NC(=O)[C@H](CCC(N)=O)NC(=O)[C@H](Cc2cn(C)c3ccccc23)NC1=O [Compound 143] (Ac-SEFCI[Trp(1-Me)]QDWGEHRC[Sar]EGE[AEEA][AEEA][AEEA]K([γGlu-Gly-γGlu-C18 diacid])-NH2; disulfide 4-14) | < 0.1 µM
CC[C@H](C)[C@@H]1NC(=O)[C@@H](NC(=O)[C@H](Cc2ccc(O)cc2)NC(=O)[C@H](CCC(=O)O)NC(=O)[C@H](CO)NC(C)=O)CSSC[C@@H](C(=O)N(C)CC(=O)N[C@@H](CCC(=O)O)C(=O)NCC(=O)N[C@@H](CCC(=O)O)C(=O)NCCOCCOCC(=O)NCCOCCOCC(=O)N[C@@H](CCCCNC(=O)CC[C@H](NC(=O)CNC(=O)CC[C@H](NC(=O)CCCCCCCCCCCCCCCCC(=O)O)C(=O)O)C(=O)O)C(N)=O)NC(=O)[C@H](CCCNC(=N)N)NC(=O)[C@H](Cc2c[nH]cn2)NC(=O)[C@H](CCC(=O)O)NC(=O)CNC(=O)[C@H](Cc2c[nH]c3ccccc23)NC(=O)[C@H](CCC(=O)O)NC(=O)[C@H](CCC(N)=O)NC(=O)[C@H](Cc2cn(C)c3ccccc23)NC1=O [Compound 125] (Ac-SEYCI[Trp(1-Me)]QEWGEHRC[Sar]EGE[AEEA][AEEA]K([γGlu-Gly-γGlu-C18 diacid])-NH2; disulfide 4-14) | < 0.5 µM
CC[C@H](C)[C@H](NC(C)=O)C(=O)N[C@H]1CSSC[C@@H](C(=O)N[C@H](C(=O)NCC(=O)N[C@@H](C)C(=O)N[C@@H](CCC(=O)O)C(=O)N[C@@H](CO)C(N)=O)[C@@H](C)O)NC(=O)[C@H](CCCNC(=N)N)NC(=O)[C@H](Cc2c[nH]cn2)NC(=O)[C@H](C)NC(=O)CNC(=O)[C@H](Cc2c[nH]c3ccccc23)NC(=O)[C@H](CC(=O)O)NC(=O)[C@H](CCC(N)=O)NC(=O)[C@H](Cc2c[nH]c3ccccc23)NC(=O)[C@H]([C@@H](C)CC)NC1=O [Compound 47] (Ac-ICIWQDWGAHRCTGAES-NH2; disulfide 2-12) | < 0.1 µM
CC[C@H](C)[C@H](NC(C)=O)C(=O)N[C@H]1CSSC[C@@H](C(=O)N(C)CC(N)=O)NC(=O)[C@H](CCCNC(=N)N)NC(=O)[C@H](Cc2c[nH]cn2)NC(=O)[C@H](CCC(=O)O)NC(=O)CNC(=O)[C@H](Cc2c[nH]c3ccccc23)NC(=O)[C@H](CC(=O)O)NC(=O)[C@H](CCC(N)=O)NC(=O)[C@H](Cc2c[nH]c3ccccc23)NC(=O)[C@H]([C@@H](C)CC)NC1=O [Compound 13] (Ac-ICIWQDWGEHRC[Sar]-NH2; disulfide 2-12) | < 0.1 µM
